Assay results from paper PMC5041077, “Metabolic profile and safety of piperlongumine” (Scientific Reports, 2016).
Blank lines part the entries; values can stand above or below the compound they belong to.

How the values were obtained:
[1] = target: CYP2C9 (Homo sapiens, UniProt P11712); assay: in vitro
[2] = tested on: human liver microsomes; assay: Time course of metabolite formation; format: in vitro ADME; details: PPL at S50, 2 mg/mL HLM
Procedure: The formation of metabolites was investigated through the application of three distinct mass spectrometry instruments. The incubation time was set at 50 min and 2 mg/mL of microsomal protein was employed in these experiments. The increase in the incubation time and microsomal protein aimed to produce a higher amount of metabolites. The concentration of PPL was 283.6 μM. After metabolism reaction, in order to favor a higher recovery of metabolites from microsomal medium liquid-liquid extraction was performed using 1 mL of ethyl acetate as the extractor solvent. The samples (n = 10) were shaken for 10 min at 1500 rpm using an orbital agitator and centrifuged for 5 min at 2860 × g. After that, 750 μL of supernatant was collected, and each one was pooled from ten single reactions. Next, the samples were evaporated to dryness by using a gentle stream of compressed air. To facilitate the identification of compounds that have hydroxyl groups, after sample preparation and before GC-MS analysis, silylation reactions were performed in the extracted samples. The residues were reconstituted in 50 μL of pyridine and 200 μL of BSTFA solution containing 2% TMCS. Following, the samples were slightly agitated and then incubated in a water bath at 75 °C for 120 min. […]
The incubation time was evaluated in different times (5, 10, 20, 40 and 50 min) in order to investigate the formation of metabolites. […]

[3] = tested on: recombinant human CYP (rhCYP) isoforms; assay: P450 reaction phenotyping by rhCYP isoforms; format: in vitro ADME; details: 50 min incubation
Procedure: The capacity of selected major human P450 isoforms to metabolize PPL was screened using human recombinant isoenzymes. Briefly, PPL (S50 concentration) was added into a 200 μL incubation mixture containing P450 isoform (50 pmol/mL for CYP3A4, CYP1A2, CYP2C9, 2B6, 2D6 and 2C19; 25 pmol/mL for CYP2C8 and […]; final concentrations), NADPH regeneration system solution A (1.3 mM NADP^+ and 3.3 mM glucose-6-phosphate), NADPH regeneration system solution B (0.4 U/mL glucose-6-phosphate dehydrogenase), potassium phosphate buffer pH 7.4 (100 mM), except for CYP2C9 where the phosphate buffer was substituted by tris buffer pH 7.5 (100 mM), maintaining for 50 min in shaking water bath. In order to enhance the sensibility one sample was pooled from 4 single reactions. PPL metabolites were analyzed by a GC-MS as described previously. The MS peak areas of PPL metabolites were recorded to determine the contributions of the P450 enzymes.
(§1) Phenotyping study at 50 min. In order to evaluate the CYP isoforms involved in M4 formation, a similar study as described in the main text was performed, except by the time of incubation of 50 min (Fig. S13).

[4] = tested on: CYP3A4; assay: P450 reaction phenotyping by selective human enzyme inhibitors; format: in vitro ADME; details: human, human liver microsomes, probe PPL (formation of metabolite M2)
Procedure: (§2) This study was performed by evaluating the PPL metabolism and the produced metabolites in the presence of these specific inhibitors. […] The incubation protocol was the same for all inhibitors, except for orphenadrine, which was pre-incubated with all incubation constituents at 37 °C for 15 min before the reaction was initiated by the addition of substrate. The concentration of PPL used in this study corresponded to its S50/2. […] In order to enhance the sensibility one sample was pooled from 4 single reactions. Sample preparations and GC-MS analysis were performed according to assay previous described. The results were expressed as % of remain activity and compared with control sample lacking the inhibitors.
as §1

[5] = tested on: human liver microsomes; assay: as above; format: in vitro ADME; details: PPL at S50/2, 10 min incubation
Procedure: as §2, §1

[6] = tested on: epoxide hydrolase; assay: Epoxide hydrolase involvement on M2 catalysis (valproic acid); format: in vitro ADME, human; details: valproic acid 550 μM, PPL 63.8 µM, 50 min, 2 mg/mL HLM, with NADPH
Procedure: Epoxide hydrolase involvement on M2 catalysis. To evaluate the epoxide hydrolase involvement on M2 catalysis (Fig. S14), PPL (63.8 µM) was incubated alone or in the presence of valproic acid (550 μM), an epoxide hydrolase inhibitor. The incubation was carried out for 50 minutes at 37°C with 2 mg/mL HLM. Sample preparations and chromatographic analysis were performed according to assay described in phenotyping study session. The results were expressed as % of remain activity and compared with control sample with the absence of the inhibitor.

CYP2C9, sequence (P11712 whole entry): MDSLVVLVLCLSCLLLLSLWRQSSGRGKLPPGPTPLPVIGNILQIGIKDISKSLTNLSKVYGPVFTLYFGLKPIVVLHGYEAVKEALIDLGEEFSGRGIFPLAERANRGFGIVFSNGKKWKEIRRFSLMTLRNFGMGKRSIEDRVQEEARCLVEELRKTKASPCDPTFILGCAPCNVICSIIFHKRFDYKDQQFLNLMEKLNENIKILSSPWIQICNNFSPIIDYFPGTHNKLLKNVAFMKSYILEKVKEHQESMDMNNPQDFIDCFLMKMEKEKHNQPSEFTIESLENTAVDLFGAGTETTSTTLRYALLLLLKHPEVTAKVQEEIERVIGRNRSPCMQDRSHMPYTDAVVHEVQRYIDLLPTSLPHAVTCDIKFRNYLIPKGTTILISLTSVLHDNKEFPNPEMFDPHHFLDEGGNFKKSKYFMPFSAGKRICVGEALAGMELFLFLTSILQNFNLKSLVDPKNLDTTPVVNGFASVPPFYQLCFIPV

Compound: O=C(O)Cc1ccccc1Nc1c(Cl)cccc1Cl [Diclofenac, diclofenac]
Km [1]: 47 µM

Compound: CC(=O)N1CCN(c2ccc(OCC3COC(Cn4ccnc4)(c4ccc(Cl)cc4Cl)O3)cc2)CC1 (centres unmarked) [ketoconazole]
inhibition at 10 min, 2 µM [4]: 83% | inhibitory effect on the formation of metabolite M3 ([5]; ketoconazole 2 μM): significant inhibitory effect

Compound: CCCC(CCC)C(=O)O [valproic acid]
amount of metabolite M4 produced in presence of valproic acid [6]: same amount produced

Compound: O=c1cc(-c2ccccc2)oc2c1ccc1ccccc12 [α-naphthoflavone]
inhibition of the formation of metabolite M1 ([5]; α-naphthoflavone (CYP1A2 inhibitor) 1 μM): strong inhibition

Second part, led by results:

incubation time of maximum production of the metabolite [2]: 20 min
Compound: COc1cc(/C=C/C(=O)N2CCC3OC3C2=O)cc(OC)c1OC (centres unmarked) [M2]

incubation time after which the metabolite starts to be produced (lag-time) [2]: > 40 min
Compound: COc1cc(/C=C/C(=O)N2CCC(O)C(O)C2=O)cc(OC)c1OC (centres unmarked) [M4]
recombinant isoforms that contributed to M4 formation [3]: CYP2C19, CYP2D6, CYP2E1, CYP2B6 and CYP2C8
